Results taken from ChEMBL document CHEMBL1136608, “Azaindoles: moderately basic P1 groups for enhancing the selectivity of thrombin inhibitors” (Bioorg Med Chem Lett, 2003).
pKi: −log10 of the molar value.

Experiments:
[1] = Area under curve was determined in dog after oral administration at 1 mg/kg; assay type: ADME, organism-based, Canis lupus familiaris; parameters: dose 1 mg/kg, route oral; conditions: in vivo
Homo sapiens = species: Homo sapiens; assay: In vitro concentration required to double the human activated partial thromboplastin time (2x APTT); assay type: functional
[2] = Cmax in dog after oral administration at 1 mg/kg; assay type: ADME, organism-based, Canis lupus familiaris; parameters: dose 1 mg/kg, route oral; conditions: in vivo
Serine protease 1 = Serine protease 1 (Homo sapiens, UniProt P07477); assay: Inhibition of Trypsin
Sequence of Serine protease 1 (P07477 whole entry): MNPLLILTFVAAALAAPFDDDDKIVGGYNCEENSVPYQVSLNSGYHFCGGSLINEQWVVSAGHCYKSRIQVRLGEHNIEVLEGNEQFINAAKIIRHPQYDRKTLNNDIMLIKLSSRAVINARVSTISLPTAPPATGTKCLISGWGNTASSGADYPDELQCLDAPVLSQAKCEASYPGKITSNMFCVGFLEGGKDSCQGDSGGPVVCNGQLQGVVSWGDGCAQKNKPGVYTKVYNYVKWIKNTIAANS

Prothrombin = Prothrombin (Homo sapiens, UniProt P00734); assay: Inhibition of Thrombin
[3] = Half-life in dog after oral administration at 1 mg/kg; assay type: ADME, organism-based, Canis lupus familiaris; parameters: dose 1 mg/kg, route oral; conditions: in vivo
Canis familiaris = assay: Cmax in dog after oral administration at 1 mg/kg; Below the level of quantitation; assay type: ADME, organism-based, Canis lupus familiaris; parameters: dose 1 mg/kg, route oral; conditions: in vivo

Row | SMILES | pKi (Serine protease 1) | Concentration (Homo sapiens) [µM] | other results
1 | Cc1cnc(NCCc2ccccn2)c(=O)n1CC(=O)NCc1cc2cc[nH]c2cn1 | 3.70 | 0.4 | AUC [1]: 0.17 µM·h; Cmax [2]: 180 nM
2 | Cc1cnc(NCCc2ccccc2)c(=O)n1CC(=O)NCc1ccc2nccn2c1 | 4.00 | – | pKi (Prothrombin): 6.85
3 | Cc1cnc(NCCc2ccccc2)c(=O)n1CC(=O)NCc1cc2cc[nH]c2cn1 | 4.02 | 2.63 | AUC [1]: 15.2 µM·h; Cmax [2]: 2690 nM; half-life [3]: 3.6 h
4 | Cc1cnc(NCCc2ccccc2)c(=O)n1CC(=O)NCc1cnc2[nH]ccc2c1 | < 4.00 | – | –
5 | Cc1nc(N)ccc1CNC(=O)Cn1c(C)cnc(NCCc2ccccc2)c1=O [L-375378] | – | 0.41 | AUC [1]: 23.1 µM·h; Cmax [2]: 5370 nM; half-life [3]: 3.18 h
6 | Cc1cnc(NCCc2ccccn2)c(=O)n1CC(=O)NCc1cnc2[nH]ccc2c1 | 3.85 | – | AUC [1]: 9.1 µM·h; pKi (Prothrombin): 8.18; Cmax [2]: 2100 nM; half-life [3]: 2.42 h
7 | Cc1cnc(NCCc2ccccn2)c(=O)n1CC(=O)NCc1c[nH]c2nccc-2c1 | – | 0.95 | –
8 | Cc1cnc(NCCc2ccccc2)c(=O)n1CC(=O)NCc1ccc2[nH]cnc2c1 | 5.70 | – | –
9 | Cc1cnc(NCCc2ccccn2)c(=O)n1CC(=O)NCc1ccc2[nH]ccc2c1 | 3.54 | – | –
10 | Cc1cnc(NCCc2ccccc2)c(=O)n1CC(=O)NCc1ccc2nccn2c1C | 5.17 | – | –

Second part, led by results:

Row | pKi (Serine protease 1) | SMILES | Concentration (Homo sapiens) [µM] | other results
11 | < 4.00 | Cc1cnc(NCCc2ccccc2)c(=O)n1CC(=O)NCc1ccc2[nH]ccc2n1 | – | –
12 | < 3.00 | Cc1cnc(NCCc2ccccn2)c(=O)n1CC(=O)NCc1ccc2[nH]ccc2n1 | 0.8 | Cmax (Canis familiaris): Below the level of quantitation
13 | < 4.00 | Cc1cnc(NCCc2ccccc2)c(=O)n1CC(=O)NCc1ccc2[nH]ccc2c1 | – | –
14 | < 4.00 | Cc1cnc(NCCc2ccccc2)c(=O)n1CC(=O)NCc1ccc2cc[nH]c2c1 | – | pKi (Prothrombin): 6.08
15 | 3.92 | Cc1cnc(NCCc2ccccc2)c(=O)n1CC(=O)NCc1ccn2ccnc2c1 | – | pKi (Prothrombin): 6.57
